The values below come from US12324927B2, “Methods and systems for photodynamic therapy calculations” (THE TRUSTEES OF THE UNIVERSITY OF PENNSYLVANIA, priority 2018, dated 2025).

In data set [1] the test system is radiation induced fibrosarcoma (RIF) tumors. Kind of data set: BPD-mediated vascular PDT of RIF tumors: explicit dosimetry and tumor regrowth (cure index). It is filed as in vivo, mice. The protocol: RIF cells were cultured and 30 μl were injected at 1×10^7 cells/ml intradermally over the right shoulders of 6 to 8 weeks old female C3H mice (NCI-Frederick, Frederick, Maryland), as described previously^10-12. Animals were under the care of the University of Pennsylvania Laboratory Animal Resources. All studies were approved by the University of Pennsylvania Institutional Animal Care and Use Committee. Tumors were treated at a size of ˜3 to 5 mm in diameter. Fur within the region of tumor inoculation was clipped prior to injection of cells, and the treatment area was depilated with Nair (Church & Dwight Co., Inc., Ewing, New Jersey) at least 24 h before measurements. Mice were provided a chlorophyll-free (alfalfa-free) rodent diet (Harlan Laboratories Inc., Indianapolis, Indiana) starting at least 10 days prior to treatment to eliminate the fluorescence signal from chlorophyll-breakdown products, which have a similar emission range to the BPD fluorescence spectra used to determine the concentration of BPD in the tumor. During the delivery of PDT, mice were kept under anesthesia on a heat pad at 38° C.
PDT was delivered using an optical fiber with a microlens attachment coupled to a diode laser. A 690 nm laser (B&W Tek Inc., Newark, Delaware) was used for PDT after a 15 min drug-light interval. The in-air fluence rate (ϕair) is defined as the calculated irradiance determined by the laser power divided by the treatment area (1 cm diameter spot size). The in-air fluence was calculated by multiplying the in-air fluence rate by the treatment time. […]
The in vivo tissue oxygen partial pressure pO2 was measured during PDT treatment using a phosphorescence-based […] (OxyLite Pro, Oxford Optronix, Oxford, United Kingdom). […] The ROS concentration ([ROS]) was calculated by multiplying the measured pO2 with the […] solubility in tissue, which is 1.295 μM/mmHg.^5 Measured [ROS]0 and [ROS](t) were used to calculate reacted oxygen species using the macroscopic singlet oxygen model.^14,15 […]
Tumor volumes were measured daily after PDT. […]

For data set [2] the following is noted: as printed in b218; cited from earlier work.

Regarding `C=Cc1c(C)c2cc3nc(cc4[nH]c(cc5nc(cc1[nH]2)C(C)=C5CCC(=O)O)c(CCC(=O)OC)c4C)[C@@]1(C)C3=CC=C(C(=O)OC)[C@H]1C(=O)OC` [BPD, benzoporphyrin derivative monoacid ring A], in data set [1] (in tumor, FIG. 18), the “change of BPD concentration before vs after PDT treatment” value is recorded as “not significant changes”. In data set [1] (mouse, in vivo), the “[ROS]rx threshold dose smaller than value for conventional BPD-mediated PDT using DLI of 3 hrs” value was “about 4.3 times”. Moreover, in data set [1] (vascular BPD-PDT, DLI 15 min), the “threshold dose for [ROS]rx” value is 0.23 mM. Moreover, the β in data set [2] is 11.9 µM.
